Columns and labels:
[1] = biological target: T1, Rpb1 CC domain (His-Rpb1) (Homo sapiens, UniProt P24928); assay: Binding assay by intrinsic fluorescence of purified His-Rpb1; conditions: read-out: IC50, decrease of intrinsic fluorescence of Rpb1 (Pol II)
T1 construct: His tag; made in house; host or cells: E. coli; purified on nickel agarose beads
Protocol: Binding assay—In order to measure binding of the indicated compound to Spt5 and/or Pol II; Spt5-Spt4 or Rpb1 fused to a histidine (His) tag were expressed in E. coli (SEQ ID Nos: 2-3, 5-6 and 81) and purified on nickel agarose beads as described in Ashkenazi et al. 2016. The proteins were incubated for 10 minutes with increasing concentrations of the indicated compound in a black 384 wells microplate in a total volume of 20 μl. Binding was assessed by measuring the changes in the intrinsic fluorescence (280 nm) using Cytation™ 5 (BioTek).
Two identified compounds, SPI-21 and SPI-18, were further validated for their direct interaction with either Spt5 or Rpb1 CC domain. […] Using the purified proteins, fluorescence intensity measurements were performed in the presence of increasing concentrations of SPI-21 or SPI-18. This method analyzes binding by monitoring the changes in the intrinsic fluorescence of the proteins as a consequence of conformational changes. […]
Direct interaction with either the Spt5 or the Rpb1 CC domain of SPI-21 and SPI-18 was further validated. […] Using the purified proteins, fluorescence intensity measurements were performed in the presence of increasing concentrations of SPI-21 and SPI-18. This method analyzes binding by monitoring the changes in the intrinsic fluorescence of the proteins as a consequence of conformational changes. […]

[2] = biological target: T2, endogenous Spt4/Spt5-Pol II complex (Homo sapiens, UniProt O00267+P24928); assay: Co-immunoprecipitation of endogenous Spt4/Spt5-Pol II complex, HeLa lysates; format: binding; conditions: 50 μM
T2 construct: endogenous in cells; host or cells: HeLa cell lysate, immunoprecipitated with anti-Spt5 antibody
Protocol: Co-immunoprecipitation (CO-IP)—HeLa cells were detached from a 10 cm dish with ice-cold PBS and a cell scraper, centrifuged for 5 minutes at 2,000 rpm and re-suspended in 200 μl lysis buffer (20 mM Tris-HCl pH 8, 400 mM NaCl, 2 mM EDTA, 0.5% NP-40, 10% glycerol) to which a protease inhibitor cocktail (1:100) and PMSF (200 μM) were freshly added. The lysates were rotated for 10 minutes at 4° C.; and centrifuged for 15 minutes at 13,000 rpm. Following, the supernatants were diluted with lysis buffer without NaCl to reach a final concentration of 100 mM NaCl. Cell lysates were then incubated at 4° C. overnight with an anti-Spt5 antibody (Tadashi Wada et al., 1998 Genes and Development. PMID: 9450929) or rabbit IgG (SC-2025, Santa Cruz Biotechnology), followed by 2 hours incubation at 4° C. with Protein A/G Sepharose beads (GE Healthcare). Following, the samples were washed 3 times and incubated for 2 hours at 4° C. with DMSO (vehicle control) or the indicated compound. The immune-precipitated proteins were detected by SDS-PAGE followed by western blot using an anti-Spt5, anti-Pol II (ab817, Abcam) or anti-Spt4 (Kim D K. et al, Genes to cells 2003 PMID: 12653964).
In the next step, co-immunoprecipitation in the presence of SPI-21 or SPI-18 was performed to test their effect of endogenous Spt4/Spt5-Pol II complex. […]

HeLa cells = assay: Cells viability assay (CellTiter-Glo), HeLa; format: cell-based, human; conditions: increasing concentrations, 48 h
Protocol: Cells viability assay—_HeLa cells were plated in an opaque-walled 96 well plate (50,000 cells per well) and treated with increasing concentrations of the tested SPI compounds (e.g., SPI-21 or SPI-18) for 48 hours. After equilibrating the plate and its contents at room temperature for 30 minutes, […] (1:1) of CellTiter-Glo® Reagent (G7571, Promega) was added to each well and shook for 2 minutes to induce cell lysis. Following 10 minutes incubation at room temperature, the luminescent signal was detected using the Cytation 5 instrument.
Spt5 was reported to be essential for cell growth and survival in mammalian cells (Komori et al., 2009).

[3] = system: replication-dependent histone genes; assay: Histone gene levels after 24 hours, cDNA with random hexamers, qPCR; format: cell-based, human
Protocol: A schematic illustration of a histone gene structure is shown on the top. For polyA+ RNA analysis, cDNA was prepared with a poly-dT oligonucleotide. In each analysis the levels were normalized to GAPDH; and the bars present the mean of 3±SEM independent experiments. * P<0.05 relative to DMSO (vehicle control). […] The data represent the means±SEMs of 3 independent experiments. The asterisks denote statistically significant differences relative to DMSO; according to Student's t tests (typically one-tailed, paired): *p<0.05; **p<0.01; ***p<0.005.
Since the RNA-seq following treatment with SPI-21 detects only polyadenylated transcripts and the treatment was effected for 2 hours, during which only a fraction of cells is in S-phase, an effect on histone genes was not found. Thus, to investigate further the regulation of histone genes by Spt5 using the identified SPIs, cells were treated for 24 hours with SPI-21 or SPI-18, to allow all cells to pass S-phase at least once. Following, mRNA was extracted and cDNA was prepared using random hexamers and the levels of 4 histone genes were determined. […] To this end, cDNA prepared by random hexamer and Poly-T the ratio between total and poly-A tailed histone genes was determined. […]

Spt5 activities = assay: Combined effects on the various Spt5 activities (summary of Examples 1-4); format: cell-based

Structure (SMILES) | IC50 [1] | effect on Spt5-Pol II binding (co-immunoprecipitation) [2] | cellular viability (HeLa cells) | expression of the selected histone genes [3] | classification by effect on the various Spt5 activities, in words (Spt5 activities)
Nc1ccccc1SC(CC(=O)c1cccs1)c1cccs1 (stereo not shown) [SPI-18] | 76 µM | did not disrupt Spt5-Pol II binding | dramatically diminish cellular viability in a dose-dependent manner | diminished expression of the selected histone genes | inhibited mainly the positive activity of Spt5 with little or no effect on proximal promoter pausing
COc1ccc(C=CC(=O)c2cc(O)ccc2O)cc1 [SPI-21] | 23 µM | did not disrupt Spt5-Pol II binding | dramatically diminish cellular viability in a dose-dependent manner | diminished expression of the selected histone genes | affect all the tested Spt5 activities
